Results on three compounds are retold here after US9474788B2, “Methods for the reactivation of latent HIV using cytosine methylation inhibitors and NF-KB activators” (priority 2010, dated 2016).

Assay type in all cases: cell-based
Test [1] deals with latent HIV-1. Here is the method: (§1) Jurkat and J-Lat cells were cultured in RPMI (Invitrogen) with 5% FBS (Gemini Bio-Products) and 5% Fetalplex (Gemini Bio-Products). For analysis of virus reactivation by flow cytometry, aza-CdR (Sigma) and TNF-α (Biosource) treatments were for 24 h, after which medium was replaced. Reactivation was assayed after an additional 48 h. For chromatin immunoprecipitation (ChIP) and bisulfite-mediated methylcytosine mapping, cells were treated for 30 h with aza-CdR. For cycloheximide experiments, cells were treated for 24 hours, either with or without 40 ng/ml cycloheximide.
J-Lat cells were transfected by electroporation using Kit R and program O-28 (Amaxa Biosystems). HIV-1 reactivation was assayed by flow cytometry four days post-transfection. […] Supernatant was harvested 48 h post-transfection and frozen at −80° C. in aliquots. Aliquots were thawed, diluted 1:160, and used to infect Jurkat T cells overnight at a multiplicity of 0.1 infectious units per cell with 2 ml supernatant per 1 million cells. Three days post-infection, GFP-negative and -positive cell populations were isolated by fluorescence-activated cell sorting (FACS). […] Cells were cotransfected with a plasmid encoding the tomato fluorescent protein and either methylated or unmethylated pEGFP-N1, and the tomato-positive population was analyzed for GFP expression. For measurement of J-Lat activation, cells were infected with undiluted virus and analyzed by flow cytometry 2 days post-infection.
Cell fluorescence was measured with the fluorescence activated cell sorter FACSCalibur or LSRII (BD Biosciences). Cell sorting was performed with the fluorescence activated cell sorting (FACS) Vantage DiVa (BD Biosciences). To phenotype CD4^+ T cells, the cells were stained with the following monoclonal antibodies (mAbs): phycoerythrin-conjugated (PE)—anti-CD4, TC—anti-CD45RA, or PE—anti-CXCR4 (Caltag). Flow cytometry and sorting data were analyzed with FlowJo software (Treestar) or Cellquest (BD Biosciences), in the case of primary cells. Analysis was restricted to the live population, as defined by the forward versus side scatter profile. Flowjo transforms fluorescence plots to a linear scale at the origin, permitting intelligible display of cells with low fluorescence.

Test [2] concerns latent HIV-1. The test is described as follows: Latent HIV-1 reactivation in a polyclonal population of latently infected Jurkat T cells, GFP by flow cytometry. The note with it: about two months after infection. On the procedure: as §1
J-Lat cells were transfected by electroporation using Kit R and program O-28 (Amaxa Biosystems). […] Three days post-infection, GFP-negative and -positive cell populations were isolated by fluorescence-activated cell sorting (FACS). […] Cells were cotransfected with a plasmid encoding the tomato fluorescent protein and either methylated or unmethylated pEGFP-N1, and the tomato-positive population was analyzed for GFP expression. For measurement of J-Lat activation, cells were infected with undiluted virus and analyzed by flow cytometry 2 days post-infection.
Cell fluorescence was measured with the fluorescence activated cell sorter FACSCalibur or LSRII (BD Biosciences). Cell sorting was performed with the fluorescence activated cell sorting (FACS) Vantage DiVa (BD Biosciences). […]
A general note: Flow cytometry measures light scatter and fluorescence of single cells or particles in a stream.

The next test concerns HIV-1 CpG island 2. The test is described as follows: Chromatin immunoprecipitation of factor recruitment to the HIV-1 provirus in J-Lat 6.3. Here is the method: as §1
ChIP was performed as described previously with modifications. J-Lat 6.3 cells Cells were diluted to 5×10^5 per ml, lysed, and sonicated (Model 500 Ultrasonic Dismembranator, Fisher Scientific). Lysates were incubated overnight with 5 μg of antibody against MBD2 (Upstate Cell Signaling Solutions cat. 07-198), HDAC2 (Santa Cruz Biotechnology cat. sc-7899) or Sp1 (Santa Cruz Biotechnology cat. sc-59). Immune complexes were recovered by incubation for 1 h with protein A agarose beads (Invitrogen). Immunoprecipitated DNA was quantified by quantitative PCR using the 7900HT Sequence Detection System (Applied Biosystems) and 2× Hot Sybr real time PCR kit (Molecular Cloning Laboratories). Negative control DNA was assayed using 5USBACT and 3USBACT as primers, CpG island 1 was assayed using oSK92 (5′-[…]-3′) (SEQ ID NO:23) and oSK93 (5′-[…]-3′) (SEQ ID NO:24) as primers, and CpG island 2 was assayed using oSK89 (5′-[…]-3′) (SEQ ID NO:25) and oSK90 (5′-[…]-3′) (SEQ ID NO:26) as primers. SDS 2.3 software (Applied Biosystems) was used to analyze precipitated DNA relative to input and to confirm the specificity of each PCR reaction by melting curve analysis.

For a further test, the system named is HIV-1 CpG islands. As to the kind of experiment: Bisulfite-mediated methylcytosine mapping of HIV-1 in J-Lat 6.3. The note with it: depending on the CpG analyzed, 30 h treatment. On the procedure:
as §1
Sodium bisulfite treatment was performed according to the Pikaard protocol (on the internet at http://followed by www(dot)biology(dot)wustl(dot)edu/pikaard/PDFs and protocol files/bisulfite sequencing(dot)pdf) with minor modifications. Jurkat T cell DNA was digested overnight with Pst I and purified with the Qiaquick PCR Purification Kit (Qiagen). Bisulfite-treated DNA was amplified in nested PCR reactions with the following reaction conditions: denature (95° C., 5 minutes), cycle 35 times (95° C., 30 seconds then 60° C., 60 seconds), and extend (60° C., 7 minutes). […] Nucleotide sequence was determined of at least nine cloned inserts using the universal M13 reverse primer. The efficiency of sodium bisulfite conversion was calculated using the Quantification Tool for Methylation Analysis (QUMA) software.

A further test concerns HIV-1 transcription. As to the kind of experiment: Reverse transcription and quantitative PCR of HIV-1 mRNA in J-Lat cells. The note with it: 24 hours, 40 ng/ml cycloheximide. On the procedure:
as §1
J-Lat cells were transfected with short interfering RNAs (siRNAs) corresponding to the MBD2 mRNA or non-targeting control short interfering RNAs (siRNAs) (siGENOME SMARTpool or siCONTROL pool, Dharmacon) by electroporation using Kit R and program O-28 (Amaxa Biosystems). […] Quantitative PCR was performed with the 7900HT Sequence Detection System (Applied Biosystems) and the 2× Hot Sybr real time PCR kit (Molecular Cloning Laboratories), with each PCR reaction receiving 1/20 of the reverse transcription. […] SDS 2.3 software (Applied Biosystems) was used to quantify each cDNA relative to cyclophilin A and to confirm the specificity of each PCR reaction by melting curve analysis.

Where two headings read alike, the source gives them in different places.

For `C[C@@H]1C[C@@H]([C@H](O)CC2CC(=O)NC(=O)C2)C(=O)[C@@H](C)C1` [Cycloheximide, cycloheximide], in the test on latent HIV-1 [1] (40 ng/ml cycloheximide), the “GFP expression after treatment of J-Lat cells with TNF-α” value is “inhibition of GFP expression”.
For `Nc1ncn([C@H]2C[C@H](O)[C@@H](CO)O2)c(=O)n1` [Aza-CdR, 5-aza-2′ deoxycytidine], in the test on latent HIV-1 [2], the “Proportion of cells with active virus, fold greater” value is on record as “two-fold greater proportion of cells with active virus”. In addition, in the test with HIV-1 CpG island 2, the “HDAC2 recruitment to CpG island 2” value is on record as “lost”. In addition, the “MBD2 recruitment to CpG island 2” value in the test with HIV-1 CpG island 2 is “eliminated”. In addition, the “Sp1 recruitment to CpG island 2” value with HIV-1 CpG island 2 is given as “increased Sp1 recruitment”. For the same compound, in the test on HIV-1 CpG islands, the Decrease in methylation is ≤ 50%. Also, the “Reactivation of latent HIV-1, MFI, fold greater than PBS control” value turned out to be 1.8 fold in the test with latent HIV-1 [1] (J-Lat cell line 6.3), 1.6 fold with latent HIV-1 [1] (J-Lat cell line 8.4), 1.1 fold with latent HIV-1 [1] (J-Lat cell line 9.2) and 1 fold in the test with latent HIV-1 [1] (J-Lat cell line 15.4). Moreover, the “Effect on HIV-1 gene expression (mean fluorescence intensity or proportion of GFP-positive cells)” value in the test with latent HIV-1 [1] (J-Lat lines 6.3, 8.4, 9.2 and 15.4) was “little effect”. In addition, the “HIV-1 transcription in the presence of cycloheximide” value in the test on HIV-1 transcription was “still induced HIV-1 transcription”.
For the compound TNF-a, the “Proportion of cells with active virus, fold greater” value in the test with latent HIV-1 [2] came to 1.5 fold. Further, the “Reactivation of latent virus” value in the test with latent HIV-1 [1] (J-Lat A2 (HIV-derived vector encoding only viral promoter and Tat)) is reported as “reactivated the majority of latent virus”. Also, the “Reactivation of latent HIV-1, MFI, fold greater than PBS control” value with latent HIV-1 [1] (J-Lat cell line 6.3) came out at 7.1 fold; with latent HIV-1 [1] (J-Lat cell line 8.4) it was 2.5 fold; in the test with latent HIV-1 [1] (J-Lat cell line 9.2), 2.3 fold; in the test on latent HIV-1 [1] (J-Lat cell line 15.4) it was 1.7 fold.
